{"source": "paper PMC11921695", "about": "(BMC Cancer, 2025)", "key": {"CD4 cell counts": {"tested_on": "CD4 cell counts", "assay": "HIV control: CD4 cell counts", "format": "in vivo, human", "experimental": "HIV control was assessed by plotting longitudinal HIV-1 viral load and CD4 cell counts over time for the per-protocol population. Due to missing data at the pre-treatment cycle 1 […] visit, the CD4 cell counts from the screening visit were used as the baseline comparator. Paired t-tests were done to test the difference between CD4 cell counts at screening, cycle 3 day 22 and cycle 6 day 22. Due to multiple testing, a Bonferroni correction was applied to the significance threshold, calculated as 0.05 ÷ 2 = 0.025.\n(§1) HIV-1 viral load and CD4 counts were measured as per standard of care at hospital sites. To measure the concentration of angiogenesis markers, 8.5 ml blood was collected in BD vacutainer no-additive serum tubes. Samples were kept at room temperature for 30 minutes before centrifugation at 2000 g for 20 minutes at room temperature. Serum samples were then stored at -80 °C prior to analysis. Serum Ang-1, Ang-2 and TIE levels were assessed using commercial ELISAs (Thermo Fisher Scientifc hAng-1 (EHANGPT1), R&D DuoSet Ang-2 (DY623), eBioscience hTIE2 (BMS2042)), according to manufacturer instructions at laboratories at the University of Sheffield."}, "Ang-1": {"tested_on": "Ang-1", "assay": "Serum angiogenic marker ELISA", "format": "in vivo, human", "conditions": "end of cycles 1, 2, 4 and 6 vs pre-dose cycle 1 day 1; any dose", "experimental": "(§2) Pharmacodynamic measures were assessed by percentage changes in serum angiogenic markers and correlated with tumour response. The baseline used was that measured at cycle visit 1 day 1 pre-selumetinib treatment. Analysis of longitudinal data was performed using a mixed effects repeated measured regression, with a trend line and 90% CI derived using the fixed effect estimates from the model.\n(§3) Circulating angiogenic biomarkers on cycle 1 day 1 pre-treatment, cycle 2 day 1, cycle 3 day 1, cycle 5 day 1 and end of cycle 6 (all ±1 day except cycle 1 day 1 pre-treatment).\nas §1"}, "Ang-2": {"tested_on": "Ang-2", "assay": "Serum angiogenic marker ELISA", "format": "in vivo, human", "experimental": "as §2, §3, §1"}, "Tie-2": {"tested_on": "Tie-2", "assay": "Serum angiogenic marker ELISA", "format": "in vivo, human", "conditions": "end of cycles 1, 2, 4 and 6 vs pre-dose cycle 1 day 1; any dose", "experimental": "as §2, §3, §1"}, "[1]": {"assay": "Selumetinib and N-desmethyl selumetinib plasma levels (phase I pharmacokinetics)", "format": "in vivo", "conditions": "for Selumetinib Concentration, 2 Hours Post-Dose / Selumetinib Concentration, 6 Hours Post-Dose / Selumetinib Concentration, Day 1 Pre-Dose: plasma, individual patients; for Selumetinib Concentration, 2 Hours Post-Dose / Selumetinib Concentration, 6 Hours Post-Dose: cycle 1 day 1", "experimental": "Pharmacokinetic studies will be performed in phase I only . […]\ncompartmental analysis will estimate C max, AUC0-24 , clearance and t1/2 from per ipheral blood measurements of both AZD 6244 and its metabolites pr e- dose, and at 2 and 6 hours post dose on day 1 and pre- dos e day 15. Labor atory bioanalysis will be performed by Quotient […]\n• Samples to be collected Cycle 1 Day 1 Pre -treatment, 2 hours and 6 hours post dose (aft er f irst set of tablets) pre- dose Cycle 1 Day 15.\n• 5mls of venous blood should be collected into a K2- ED TA BD vacutainer • Samples should be inverted several times to ensure adequate mix ing. […]\n• 2x 500µ l of plasma should be aliquoted to polypropylene eppendorf tubes.\n• Tubes should be individually labeled with the patient’s study number and sample time- point.\n• Samples should be stored at - 200C.\n• 1 x sample to be transferred on dry ice to Quotient Bioresearch for bioanalysis (all four sample time- points day 1 pre- d ose, and at 2 and 6 hours post d ose and pre- dose day 1 5 can be shipped together – please refer to the Laboratory Manual for c ourier details).\n• 1 x sample to be stored at the study centre as back-up."}, "Japanese patients, NSCLC": {"tested_on": "Japanese patients, NSCLC", "parameters": "method as in study D1532C00067", "conditions": "selumetinib + Docetaxel, ref study D1532C00067; cited from earlier work"}, "p38 and JNK": {"tested_on": "p38 and JNK", "parameters": "method as in Banerji, et al.", "conditions": "protocol background; ref Banerji, et al.; cited from earlier work"}}, "note": "Where “and” joins values, the source holds several entries; their conditions need not be identical. Equal values may be shown once. Entries after “also recorded” stand apart in the source; their conditions may differ.", "data": [{"smiles": "Cn1cnc2c(F)c(Nc3ccc(Br)cc3Cl)c(C(=O)NOCCO)cc21", "note": "[selumetinib, 6-(4-Bromo-2-chloro-phenylamino)-7-fluro-3-methyl-3 H-benzoimidazole-5-carboxylic acid (2-hydroxy-ethoxy)-amide hydrogen sulphate]", "values": [{"measurement": "mean increase in CD4 cell counts", "setting": "CD4 cell counts; cycle 3 day 22 vs screening, per-protocol population, 95% CI: 41.91, 280.63, p = 0.013", "result": 161.27, "unit": "cells/mm^3"}, {"measurement": "increase in CD4 cell counts", "setting": "CD4 cell counts; cycle 6 day 22 vs pre-treatment, 95% CI: 31.87, 273.47, p = 0.023", "result": 152.67, "unit": "cells/mm^3"}, {"measurement": "change in circulating level of Ang-1", "setting": "Ang-1", "result": "no significant changes"}, {"measurement": "change in circulating level of Ang-2", "setting": "Ang-2; end of cycles 1, 2, 4 and 6 vs pre-dose cycle 1 day 1, any dose", "result": "no significant changes"}, {"measurement": "serum levels of Ang-2 on treatment compared to baseline (trend)", "setting": "Ang-2; on selumetinib treatment", "result": "tended to be lower"}, {"measurement": "change in circulating level of Tie-2", "setting": "Tie-2", "result": "no significant changes; also recorded: no changes were observed"}, {"measurement": "plasma levels compared with other selumetinib studies", "setting": "[1]; phase I, comparison with refs 19-22", "result": "consistent with published reports from other selumetinib studies"}, {"measurement": "Selumetinib Concentration, 2 Hours Post-Dose", "setting": "[1]; starting dose 50 mg bd", "result": "201 ng/mL and 304 ng/mL and 238 ng/mL and 274 ng/mL"}, {"measurement": "Selumetinib Concentration, 6 Hours Post-Dose", "setting": "[1]; starting dose 50 mg bd", "result": "26.5 ng/mL and 48.5 ng/mL and 47.9 ng/mL"}, {"measurement": "Selumetinib Concentration, 2 Hours Post-Dose", "setting": "[1]; starting dose 75 mg bd", "result": "1280 ng/mL and 1250 ng/mL and 361 ng/mL and 247 ng/mL and 504 ng/mL and 1040 ng/mL"}, {"measurement": "Selumetinib Concentration, 6 Hours Post-Dose", "setting": "[1]; starting dose 75 mg bd", "result": "249 ng/mL and 180 ng/mL and 284 ng/mL and 452 ng/mL and 66.1 ng/mL"}, {"measurement": "Selumetinib Concentration, Day 1 Pre-Dose", "setting": "[1]; starting dose 50 mg bd", "result": "BLQ"}, {"measurement": "Selumetinib Concentration, Day 1 Pre-Dose", "setting": "[1]; starting dose 75 mg bd", "result": "BLQ"}, {"measurement": "febrile neutropenia, patients treated", "setting": "Japanese patients, NSCLC", "result": "3 of 8"}, {"measurement": "activity against other kinases including p38 and JNK", "setting": "p38 and JNK", "result": "inactive, or minimally active"}]}]}
